BindingDB's records for doi:10.1016/S0960-894X(01)80270-5 (1994)

The compounds below were run against T1, Neutrophil elastase (Homo sapiens, UniProt P08246) (assay: Inhibitory activity against human leukocyte elastase using MeO-Suc-Ala-Ala-Pro-Val-pNA (416 uM) as substrate).
T1 sequence (P08246 whole entry): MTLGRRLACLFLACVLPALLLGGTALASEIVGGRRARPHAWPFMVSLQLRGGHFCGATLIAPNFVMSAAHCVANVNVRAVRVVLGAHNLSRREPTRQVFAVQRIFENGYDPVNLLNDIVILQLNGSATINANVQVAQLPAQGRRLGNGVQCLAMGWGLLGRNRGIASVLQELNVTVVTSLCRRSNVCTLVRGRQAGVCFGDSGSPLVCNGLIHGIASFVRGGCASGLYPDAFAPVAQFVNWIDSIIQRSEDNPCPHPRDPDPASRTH

IC50 [µM]	Compound
> 1000	COc1ccc2c(c1)c1c(O)oc(=O)nc1n2CCc1ccccc1 [6-Methoxy-9-phenethyl-1,9-dihydro-[1,3]oxazino[4,5-b]indole-2,4-dione]

What follows are compounds tested against T1, Neutrophil elastase (assay: ChEBML_86533).
Procedure: Inhibitory activity against human leukocyte elastase using MeO-Suc-Ala-Ala-Pro-Val-pNA (416 uM) as substrate;No Inhibition

IC50 [µM]	Compound
> 1000	CCCCn1c(C)c(C)c2c(O)oc(=O)nc21 [1-Butyl-2,3-dimethyl-1,7-dihydro-5-oxa-1,7-diaza-indene-4,6-dione]
> 1000	Cc1c(C)n(C2CCCCC2)c2nc(=O)oc(O)c12 [1-Cyclohexyl-2,3-dimethyl-1,7-dihydro-5-oxa-1,7-diaza-indene-4,6-dione]
> 1000	COCCn1c2ccc(OC)cc2c2c(O)oc(=O)nc21 [6-Methoxy-9-(2-methoxy-ethyl)-1,9-dihydro-[1,3]oxazino[4,5-b]indole-2,4-dione]
> 1000	COc1ccc2c(c1)c1c(O)oc(=O)nc1n2Cc1ccccn1 [6-Methoxy-9-pyridin-2-ylmethyl-1,9-dihydro-[1,3]oxazino[4,5-b]indole-2,4-dione]
> 1000	COc1ccc2c(c1)c1c(O)oc(=O)nc1n2CC(OC)OC [9-(2,2-Dimethoxy-ethyl)-6-methoxy-1,9-dihydro-[1,3]oxazino[4,5-b]indole-2,4-dione]
> 1000	COc1ccc2c(c1)c1c(O)oc(=O)nc1n2C1CCCCC1 [9-Cyclohexyl-6-methoxy-1,9-dihydro-[1,3]oxazino[4,5-b]indole-2,4-dione]
> 1000	COCCn1c2ccc(OC(C)=O)cc2c2c(O)oc(=O)nc21 [Acetic acid 9-(2-methoxy-ethyl)-2,4-dioxo-1,2,4,9-tetrahydro-[1,3]oxazino[4,5-b]indol-6-yl ester]
